These are literature values, as cited in patent publication US6800300B1, “Method for treating autoimmune and alloimmune diseases” (Vasogen Ireland Limited, priority 2000, dated 2004).

Each structure is given as a SMILES string. Where a name gives a salt, the structure may show the parent alone.

For data set [1], the system named is TNF-α production by lymphocytes and macrophages.
For the next data set, the system named is serum TNF. To be noted: endotoxin-induced shock rat model.

In the case of `COc1ccc(C2CNC(=O)C2)cc1OC1CCCC1` (centres unmarked) [4-(3-cyclopentyloxy4-methoxyphenyl)-2-pyrrolidone], the “production of TNF-α” value in data set [1] is recorded as “down-regulate the production of TNF-α”. In the case of `C[C@H](Cc1ccccc1)Nc1ncnc2c1ncn2[C@@H]1O[C@H](CO)[C@@H](O)[C@H]1O` [R-phenylisopropyladenosine (R-PIA), R-phenylisopropyladenosine], the “serum TNF concentrations” value in the data set on serum TNF is reported as “reduce serum TNF concentrations”. With `CC(=O)O[C@H]1C[C@@]2(C)[C@@H](C[C@@H](O)[C@H]3[C@@]4(C)CC[C@@H](O)[C@@H](C)[C@@H]4CC[C@@]32C)/C1=C(\CCC=C(C)C)C(=O)O` [fusidic acid (sodiun salt), fusidic acid], in the data set on serum TNF, the “serum TNF concentrations” value is “reduce serum TNF concentrations”.

As for `N=C(N)c1ccc(OCCCCCOc2ccc(C(=N)N)cc2)cc1` [pentamidine (isethionate), pentamidine], the “serum TNF concentrations” value in the data set with serum TNF was “reduce serum TNF concentrations”. `CC(=O)CCCCn1c(=O)c2c(ncn2C)n(C)c1=O` [pentoxifylline]: the “serum TNF concentrations” value with serum TNF is reported as “reduce serum TNF concentrations”.
